system: Aβ42; assay: In vitro cell screening assay; quantification of Aβ (1-42) peptide by sandwich ELISA; type: cell-based; settings: Human neuroglioma H4 cells stably expressing human wild type APP751; compounds 0.003-10 μM, incubated overnight (16-18 h); Aβ42 in supernatant by sandwich ELISA; normalized to DMSO and DAPT; read-out: Aβ42 H4 Prot Fre IC50
Experimental: Human neuroglioma H4 cells were transfected with a pcDNA3.1 plasmid expressing human wild type APP751 cDNA and a stable cell line was generated using G418 selection. Cells were plated at 15,000 cells/well in Costar 96-well plates and placed at 37° C. and 5% CO2. Six hours after plating, cells were washed three times with Pro293™ chemically defined medium, followed by addition of compounds (0.003-10 μM, final DMSO concentration of 0.33%). Plates were incubated overnight (16-18 h) and supernatant was removed for quantification of Aβ peptides by sandwich ELISA. Cytotoxicity was evaluated using Cell-Titer 96W AQueous One Solution Cell Proliferation Assay according to the manufacturer's protocol.
Aβ peptide levels were quantified by sandwich ELISA. 96-well plates were coated with C-terminal specific Aβ antibodies recognizing either Aβ37, Aβ38, Aβ40, Aβ42, Aβ43 or a N-terminal specific Aβ antibody to detect Aβ 1-x. Plates were then blocked overnight at 4° C. with 1% bovine serum albumin (BSA) in PBS-T. Plates were washed and 100 μl of cultured cell supernatant or synthetic Aβ peptide standards and a detection antibody (4G8-HRP) were applied to the blocked plate and incubated overnight at 4° C. The next day, wells were washed before the addition of detection substrate (TMB peroxidase). Plates were then read for absorbance at 450 nm on a Molecular Devices SpectraMax M5e Microplate Reader.
Compound-treated samples were normalized to samples treated with DMSO alone (no inhibition) and to samples treated with DAPT. IC50 values were calculated from values reported as percent of DMSO controls using nonlinear regression, based on a sigmoidal dose—response (variable slope) model. […] used for calculation.

Compared with COc1nc(C2=NOC(C3CC3)C(c3cn(C)c4ncc(Cl)cc34)N2)ccc1-n1cnc(C)c1 (stereo not drawn) [57A or 58A, (+)-(cis)-5-(5-chloro-1-methyl-1H-pyrrolo[2,3-b]pyridin-3-yl)-6-cyclopropyl-3-(6-methoxy-5-(4-methyl-1H-imidazol-1-yl)pyridin-2-yl)-5,6-dihydro-4H-1,2,4-oxadiazine], COc1nc(C2=NOC(C)C(c3cn(C)c4ncc(Cl)cc34)N2)ccc1-n1cnc(C)c1 (single isomer, unassigned; (-)) [Example 54C, (−)-5-(5-chloro-1-methyl-1H-pyrrolo [2,3-b]pyridin-3-yl)-3-(6-methoxy-5-(4-methyl-1H-imidazol-1-yl)pyridin-2-yl)-6-methyl-5,6-dihydro-4H-1,2,4-oxadiazine] is 2.7-fold lower in IC50: 1240 nM for the first, 464 nM for the second. The second is the more potent here.

First: COc1nc(C2=NOC(C)C(c3cn(C)c4ccc(F)c(F)c34)N2)ccc1-n1cnc(C)c1 (single isomer, unassigned; (-)) [Example 52D, (−)-5-(4,5-difluoro-1-methyl-1H-indol-3-yl)-3-(6-methoxy-5-(4-methyl-1H-imidazol-1-yl)pyridin-2-yl)-6-methyl-5,6-dihydro-4H-1,2,4-oxadiazine]
Second: COc1nc(C2=NOC(C)C(c3cn(C)c4ncc(F)c(F)c34)N2)ccc1-n1cnc(C)c1 (single isomer, unassigned; (+)) [Example 51A, (+)-5-(4,5-difluoro-1-methyl-1H-pyrrolo [2,3-b]pyridin-3-yl)-3-(6-methoxy-5-(4-methyl-1H-imidazol-1-yl)pyridin-2-yl)-6-methyl-5,6-dihydro-4H-1,2,4-oxadiazine]
The IC50 of the first is 34-fold higher: 401 nM for the first, 11.7 nM for the second.

First: COc1nc(C2=NOCC3CN(c4ccc(Cl)cc4C(F)(F)F)CCN23)ccc1-n1cnc(C)c1 (single isomer, unassigned) [Example 36A, 8-(4-chloro-2-(trifluoromethyl)phenyl)-4-(6-methoxy-5-(4-methyl-1H-imidazol-1-yl)pyridin-2-yl)-1,6,7,8,9,9a-hexahydropyrazino [1,2-d] [1,2, 4] oxadiazine]
Second: COc1nc(C2=NOC(C3CC3)C(c3ccc(Cl)cc3)N2)ccc1-n1cnc(C)c1 (stereo not drawn) [Example 20B, (+)-cis-5-(4-chlorophenyl)-6-cyclopropyl-3-[6-methoxy-5-(4-methyl-1H-imidazol-1-yl)pyridin-2-yl]-5,6-dihydro-4H-1,2,4-oxadiazine]
The IC50 of the first is 7.1-fold higher: 64 nM for the first, 9 nM for the second. The second is the more potent here.

First: COc1nc(C2=NOC(C)C(c3nn(C)c4ccc(Cl)cc34)N2)ccc1-n1cnc(C)c1 (stereo not drawn) [Example 69B, (−)-(cis)-5-(5-chloro-1-methyl-1H-indazol-3-yl)-3-(6-methoxy-5-(4-methyl-1H-imidazol-1-yl)pyridin-2-yl)-6-methyl-5,6-dihydro-4H-1,2,4-oxadiazine]
Second: COc1nc(C2=NOC(C)C(c3ccc(Cl)c(F)c3)N2)ccc1-n1cnc(C)c1 (stereo not drawn) [40-IA or 40-IIA, (−)-(cis)-5-(4-chloro-3-fluorophenyl)-3-(6-methoxy-5-(4-methyl-1H-imidazol-1-yl)pyridin-2-yl)-6-methyl-5,6-dihydro-4H-1,2,4-oxadiazine]
The IC50 of the first is 2.6-fold lower: 706 nM for the first, 1840 nM for the second. The first is the more potent here.

Compared with COc1nc(C2=NOC(C)C(c3ccc(Cl)cc3)N2)ccc1-c1ccnc(C)c1 (single isomer, unassigned; (+)) [Example 48B, (+)-5-(4-chlorophenyl)-3-(2-methoxy-2′-methyl-[3,4′-bipyridin]-6-yl)-6-methyl-5,6-dihydro-4H-1,2,4-oxadiazine], COc1nc(C2=NOC(C)C(c3ccc(Cl)c(F)c3)N2)ccc1-n1cnc(C)c1 (stereo not drawn) [40-IB or 40-IIB, (+)-(cis)-5-(4-chloro-3-fluorophenyl)-3-(6-methoxy-5-(4-methyl-1H-imidazol-1-yl)pyridin-2-yl)-6-methyl-5,6-dihydro-4H-1,2,4-oxadiazine] is 2.4-fold lower in IC50: 18.2 nM for the first, 7.5 nM for the second.

First: COc1nc(C2=NOC(C)C(c3cn(C)c4ccc(F)c(F)c34)N2)ccc1-n1cnc(C)c1 (single isomer, unassigned; (+)) [Example 52C, (+)-5-(4,5-difluoro-1-methyl-1H-indol-3-yl)-3-(6-methoxy-5-(4-methyl-1H-imidazol-1-yl)pyridin-2-yl)-6-methyl-5,6-dihydro-4H-1,2,4-oxadiazine]
Second: COc1nc(C2=NOC(C)C(c3cn(C)c4ncc(Cl)c(F)c34)N2)ccc1-n1cnc(C)c1 (single isomer, unassigned; (-)) [Example 62B, (−)-5-(5-chloro-4-fluoro-1-methyl-1H-pyrrolo [2,3-b]pyridin-3-yl)-3-(6-methoxy-5-(4-methyl-1H-imidazol-1-yl)pyridin-2-yl)-6-methyl-5,6-dihydro-4H-1,2,4-oxadiazine]
The IC50 of the first is 83-fold lower: 5.8 nM for the first, 484 nM for the second. The first is the more potent here.

Going from COc1nc(C2=NOC(C)C(c3cn(C)c4ncc(C5CC5)cc34)N2)ccc1-n1cnc(C)c1 (single isomer, unassigned; (+)) [Example 56A, (+)-5-(5-cyclopropyl-1-methyl-1H-pyrrolo [2,3-b]pyridin-3-yl)-3-(6-methoxy-5-(4-methyl-1H-imidazol-1-yl)pyridin-2-yl)-6-methyl-5,6-dihydro-4H-1,2,4-oxadiazine] to COc1nc(C2=NOC(C)C(c3cn(C)c4ncc(C(F)(F)F)cc34)N2)ccc1-n1cnc(C)c1 (single isomer, unassigned; (+)) [44D or 45D, (+)-3-(6-methoxy-5-(4-methyl-1H-imidazol-1-yl)pyridin-2-yl)-6-methyl-5-(1-methyl-5-(trifluoromethyl)-1H-pyrrolo[2,3-b]pyridin-3-yl)-5,6-dihydro-4H-1,2,4-oxadiazine], the IC50 falls from 746 nM to 4.3 nM (170-fold).

Going from COc1nc(C2=NOC(C3CC3)C(c3cc4ccccc4o3)N2)ccc1-n1cnc(C)c1 (single isomer, unassigned; (-)) [Example 61B, (−)-5-(benzofuran-2-yl)-6-cyclopropyl-3-(6-methoxy-5-(4-methyl-1H-imidazol-1-yl)pyridin-2-yl)-5,6-dihydro-4H-1,2,4-oxadiazine] to COc1nc(C2=NOC(C3CC3)C(c3cn(C)c4nccc(F)c34)N2)ccc1-n1cnc(C)c1 (single isomer, unassigned; (-)) [Example 63B, (−)-6-cyclopropyl-5-(4-fluoro-1-methyl-1H-pyrrolo [2,3-b]pyridin-3-yl)-3-(6-methoxy-5-(4-methyl-1H-imidazol-1-yl)pyridin-2-yl)-5,6-dihydro-4H-1,2,4-oxadiazine], the IC50 falls from 598 nM to 105 nM (5.7-fold).

Compared with COc1nc(C2=NOC(C)C(c3cn(C)c4ncc(C5CC5)cc34)N2)ccc1-n1cnc(C)c1 (single isomer, unassigned; (+)) [Example 56D, (+)-5-(5-cyclopropyl-1-methyl-1H-pyrrolo [2,3-b]pyridin-3-yl)-3-(6-methoxy-5-(4-methyl-1H-imidazol-1-yl)pyridin-2-yl)-6-methyl-5,6-dihydro-4H-1,2,4-oxadiazine], COc1nc(C2=NOC(C)C(c3cn(C)c4ncc(C(F)(F)F)cc34)N2)ccc1-n1cnc(C)c1 (single isomer, unassigned; (-)) [44A or 45A, (−)-3-(6-methoxy-5-(4-methyl-1H-imidazol-1-yl)pyridin-2-yl)-6-methyl-5-(1-methyl-5-(trifluoromethyl)-1H-pyrrolo[2,3-b]pyridin-3-yl)-5,6-dihydro-4H-1,2,4-oxadiazine] is 14-fold higher in IC50: 12.5 nM for the first, 173 nM for the second.

First: COc1nc(C2=NOCC3CN(c4ccc(Cl)cc4C(F)(F)F)CCN23)ccc1-n1cnc(C)c1 (single isomer, unassigned) [Example 36B, 8-(4-chloro-2-(trifluoromethyl)phenyl)-4-(6-methoxy-5-(4-methyl-1H-imidazol-1-yl)pyridin-2-yl)-1,6,7,8,9,9a-hexahydropyrazino [1,2-d] [1,2,4] oxadiazine]
Second: COc1nc(C2=NOC(C)C(c3ccc(Cl)c(C(F)F)c3)N2)ccc1-n1cnc(C)c1 (single isomer, unassigned; (+)) [Example 55A, (+)-5-(4-chloro-3-(difluoromethyl)phenyl)-3-(6-methoxy-5-(4-methyl-1H-imidazol-1-yl)pyridin-2-yl)-6-methyl-5,6-dihydro-4H-1,2,4-oxadiazine]
The IC50 of the first is 26-fold higher: 307 nM for the first, 11.6 nM for the second. The second is the more potent here.

COc1nc(C2=NOC(C3CC3)C(c3cn(C)c4ncc(F)c(F)c34)N2)ccc1-n1cnc(C)c1 (single isomer, unassigned; (+)) [Example 60A, (+)-6-cyclopropyl-5-(4,5-difluoro-1-methyl-1H-pyrrolo [2,3-b]pyridin-3-yl)-3-(6-methoxy-5-(4-methyl-1H-imidazol-1-yl)pyridin-2-yl)-5,6-dihydro-4H-1,2,4-oxadiazine] and COc1nc(C2=NOCC(C)(c3cn(C)c4ccccc34)N2)ccc1-n1cnc(C)c1 (single isomer, unassigned; (-)) [Example 26B, (−)-3-[3-[6-methoxy-5-(4-methyl-1H-imidazol-1-yl)pyridin-2-yl]-5-methyl-5,6-dihydro-4H-1,2,4-oxadiazin-5-yl]-1-methyl-1H-indole] are within 1.5-fold of each other in IC50: 367 nM for the first, 310 nM for the second.

COc1nc(C2=NOC(C)(C)C(c3ccccc3)N2)ccc1-n1cnc(C)c1 (single isomer, unassigned; (+)) [Example 22B, (+)-3-[6-methoxy-5-(4-methyl-1H-imidazol-1-yl)pyridin-2-yl]-6,6-dimethyl-5-phenyl-5,6-dihydro-4H-1,2,4-oxadiazine] gave an IC50 of 75 nM.
